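Grown in 96-well plates, cells were treated for 48 hours with each compound at five concentrations. Insufficient inhibition: endpoint recorded as highest concentration tested. Abbreviation: GI50, concentration required for 50% inhibition of growth.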 Activity calls are given as the source filed them. Rule as the data show it: active = GI50 up to about 1.1 µM and inactive = higher.
How the values were obtained:
Test in all cases: inhibition of tumour cell growth, NCI panel, 48 h
HCC 2998 = system: HCC 2998
U-251 = system: U-251
T47D = system: T47D
KM12 = system: KM12
SK-MEL-5 = system: SK-MEL-5
HOP-62 = system: HOP-62
SK-MEL-28 = system: SK-MEL-28
HT-29 = system: HT-29
BT-549 = system: BT-549
LOX IMVI = system: LOX IMVI
786-0 = system: 786-0
SNB-75 = system: SNB-75
OVCAR-3 = system: OVCAR-3
SF-295 = system: SF-295
IGROV-1 = system: IGROV-1
OVCAR-4 = system: OVCAR-4
SF-268 = system: SF-268
SNB-19 = system: SNB-19
SN12C = system: SN12C
NCI/ADR-RES = system: NCI/ADR-RES
DU-145 = system: DU-145
HOP-92 = system: HOP-92
Malme-3M = system: Malme-3M
CAKI-1 = system: CAKI-1
HCT-116 = system: HCT-116
MDA-N = system: MDA-N
CCRF-CEM = system: CCRF-CEM
UO-31 = system: UO-31
PC-3 = system: PC-3
OVCAR-5 = system: OVCAR-5
SR = system: SR
Hs-578T = system: Hs-578T
MCF7 = system: MCF7
A549 = system: A549
A498 = system: A498
SW-620 = system: SW-620
NCI-H23 = system: NCI-H23
OVCAR-8 = system: OVCAR-8
K562 = system: K562
HCT-15 = system: HCT-15
SK-OV-3 = system: SK-OV-3
COLO 205 = system: COLO 205
UACC-257 = system: UACC-257
NCI-H460 = system: NCI-H460
NCI-H522 = system: NCI-H522
NCI-H226 = system: NCI-H226
SF-539 = system: SF-539
RXF 393 = system: RXF 393
RPMI-8226 = system: RPMI-8226
M14 = system: M14
TK-10 = system: TK-10
MDA-MB-231 = system: MDA-MB-231
MOLT-4 = system: MOLT-4
UACC-62 = system: UACC-62
ACHN = system: ACHN
EKVX = system: EKVX
HL-60 = system: HL-60
MDA-MB-435 = system: MDA-MB-435
SK-MEL-2 = system: SK-MEL-2

## COc1cc(/C=C2\CCC(C)C3=C(c4cc(OC)c(OC)c(OC)c4)C(C#N)=C(N)OC32)cc(OC)c1OC (centres undefined)
HCC 2998
  GI50: 4160 nM (inactive)
U-251
  GI50: 3080 nM (inactive)
T47D
  GI50: 2100 nM (inactive)
KM12
  GI50: 3860 nM (inactive)
SK-MEL-5
  GI50: 2610 nM (inactive)
HOP-62
  GI50: 7450 nM (inactive)
SK-MEL-28
  GI50: 2850 nM (inactive)
HT-29
  GI50: 2000 nM (inactive)
BT-549
  GI50: 5970 nM (inactive)
LOX IMVI
  GI50: 2000 nM (inactive)
786-0
  GI50: 1950 nM (inactive)
SNB-75
  GI50: 1360 nM (inactive)
OVCAR-3
  GI50: 4100 nM (inactive)
SF-295
  GI50: 3650 nM (inactive)
IGROV-1
  GI50: 4940 nM (inactive)
OVCAR-4
  GI50: 2970 nM (inactive)
SF-268
  GI50: 3590 nM (inactive)
SNB-19
  GI50: 11600 nM (inactive)
SN12C
  GI50: 3210 nM (inactive)
NCI/ADR-RES
  GI50: 3740 nM (inactive)
DU-145
  GI50: 5090 nM (inactive)
HOP-92
  GI50: 3170 nM (inactive)
Malme-3M
  GI50: 2590 nM (inactive)
CAKI-1
  GI50: 4730 nM (inactive)
HCT-116
  GI50: 2200 nM (inactive)
MDA-N
  GI50: 2470 nM (inactive)
CCRF-CEM
  GI50: 2050 nM (inactive)
UO-31
  GI50: 3920 nM (inactive)
PC-3
  GI50: 1830 nM (inactive)
OVCAR-5
  GI50: 6560 nM (inactive)
SR
  GI50: 1490 nM (inactive)
Hs-578T
  GI50: 2100 nM (inactive)
MCF7
  GI50: 2240 nM (inactive)
A549
  GI50: 3460 nM (inactive)
A498
  GI50: 4000 nM (inactive)
SW-620
  GI50: 3970 nM (inactive)
NCI-H23
  GI50: 3720 nM (inactive)
OVCAR-8
  GI50: 3300 nM (inactive)
K562
  GI50: 2850 nM (inactive)
HCT-15
  GI50: 2080 nM
SK-OV-3
  GI50: 5320 nM (inactive)
COLO 205
  GI50: 2110 nM (inactive)
UACC-257
  GI50: 4320 nM (inactive)
NCI-H460
  GI50: 3570 nM (inactive)
NCI-H522
  GI50: 2420 nM (inactive)
NCI-H226
  GI50: 2980 nM (inactive)
SF-539
  GI50: 2260 nM (inactive)
RXF 393
  GI50: 1650 nM (inactive)
RPMI-8226
  GI50: 1630 nM (inactive)
M14
  GI50: 2230 nM (inactive)
TK-10
  GI50: 4210 nM (inactive)
MDA-MB-231
  GI50: 2450 nM (inactive)
MOLT-4
  GI50: 1840 nM (inactive)
UACC-62
  GI50: 2450 nM (inactive)
ACHN
  GI50: 3890 nM (inactive)
EKVX
  GI50: 3080 nM (inactive)
HL-60
  GI50: 1670 nM (inactive)
MDA-MB-435
  GI50: 2760 nM (inactive)
SK-MEL-2
  GI50: 2090 nM (inactive)

— ChEMBL document CHEMBL1201862, “PubChem BioAssay data set” (2004)
